Assay results published in patent US12539287B2, “L-DOPA microbiome therapy” (Iowa State University Research Foundation, Inc., priority 2018, dated 2026).

Key:
[1] = Bz 50 mg/kg 3 times/day
Procedure: Mice were orally administered a single daily dose of 10^9 CFU EcN^2L-DOPA or PBS and also Bz (50 mg/kg) 3 times/day for 1 and 2 days. Plasma samples collected through submandibular sampling prior to EcN^2L-DOPA treatment (serving as baseline), and at 4, 8, 16, 24 and 48 h post-EcN^2L-DOPA and Bz (50 mg/kg) treatment, were assayed for L-DOPA production by HPLC. […] We increased the dose and frequency of Bz because of its short half-life.

[2] = humans; cited from earlier work
[3] = cited from earlier work

Row | Compound | duration of Bz plasma levels [1] | optimal therapeutic plasma levels [2] [ng/mL] | solubility in water [3]
1 | NC(CO)C(=O)NNCc1ccc(O)c(O)c1O (stereo not drawn) [Bz, benserazide] | up to 30 h |  | 
2 | N[C@@H](Cc1ccc(O)c(O)c1)C(=O)O [L-DOPA, (−)-L-a-amino-b-(3,4-dihydroxybenzene)propanoic acid] |  | 300 to 1600 | slightly soluble in water
